According to patent publication US7998979B2, “Antibacterial quinoline derivatives” (Janssen Pharmaceutical N.V., priority 2006, dated 2011):
≈ marks a conversion by molar mass, not a printed value.

Columns and labels:
[1] = tested on: Pseudomonas aeruginosa (ATCC27853); experiment: IC90 determination, microtitre plate assay, PAE 27853; type: cell-based; conditions: 90% inhibitory concentration for bacterial growth, 24 hours, 37° C., read-out: IC90 (μg/ml) PAE 27853
Protocol: (§1) D.3. In-Vitro Method for Testing Compounds for Anti-Bacterial Activity Against Various Non-Mycobacterial Strains
(§2) Preparation of Bacterial Suspensions for Susceptibility Testing:
(§3) The bacteria used in this study were grown overnight in flasks containing 100 ml Mueller-Hinton Broth (Becton Dickinson—cat. no. 275730) in sterile de-ionized water, with shaking, at 37° C. Stocks (0.5 ml/tube) were stored at −70° C. until use. Bacteria titrations were performed in microtiter plates to detect the TCID50, in which the TCID50 represents the dilution that gives rise to bacterial growth in 50% of inoculated cultures.
(§4) In general, an inoculum level of approximately 100 TCID50 was used for susceptibility testing.
(§5) Anti Bacterial Susceptibility Testing: IC90 Determination
(§6) Flat-bottom, sterile 96-well plastic microtiter plates were filled with 180 μl of sterile deionized water, supplemented with 0.25% BSA. […] At the end of incubation, one day after inoculation, the bacterial growth was quantitated fluorometrically. […] The fluorescence was read in a computer-controlled fluorometer (Cytofluor Biosearch) at an excitation wavelength of 530 nm and an emission wavelength of 590 nm. The % growth inhibition achieved by the compounds was calculated according to standard methods.

[2] = tested on: Streptococcus pyogens (ATCC8668); experiment: IC90 determination, microtitre plate assay, SPY 8668; type: cell-based; conditions: 90% inhibitory concentration for bacterial growth, 24 hours, 37° C., read-out: IC90 (μg/ml) SPY 8668
Protocol: as §1, §2, §3, §4, §5, §6

[3] = tested on: Enterococcus faecalis (ATCC29212); experiment: IC90 determination, microtitre plate assay, EFA 29212; type: cell-based; conditions: 90% inhibitory concentration for bacterial growth, 24 hours, 37° C., read-out: IC90 (μg/ml) EFA 29212
Protocol: as §1, §2, §3, §4, §5, §6

[4] = tested on: Staphylococcus aureus (ATCC29213); experiment: IC90 determination, microtitre plate assay, STA 29213; type: cell-based; conditions: 90% inhibitory concentration for bacterial growth, 37° C.; for IC90 (μg/ml) STA B29213: 24 hours; for IC90: Staphylococcus aureus, ATCC29213, 24 h, read-out: IC90 (μg/ml) STA B29213
Protocol: as §1, §2, §3, §4, §5
(§7) Flat-bottom, sterile 96-well plastic microtiter plates were filled with 180 μl of sterile deionized water, supplemented with 0.25% BSA. Subsequently, stock solutions (7.8×final test concentration) of compounds were added in 45 μl volumes in column 2 Serial five-fold dilutions (45 μl in 180 μl) were made directly in the microtiter plates from column 2 to reach column 11. Untreated control samples with (column 1) and without (column 12) inoculum were included in each microtiter plate. Depending on the bacteria type, approximately 10 to 60 CFU per well of bacteria inoculum (100 TCID50), in a volume of 100 μl in 2.8×Mueller-Hinton broth medium, was added to the rows A to H, except column 12. The same volume of broth medium without inoculum was added to column 12 in row A to H. The cultures were incubated at 37° C. for 24 hours under a normal atmosphere (incubator with open air valve and continuous ventilation). At the end of incubation, one day after inoculation, the bacterial growth was quantitated fluorometrically. Therefore resazurin (0.6 mg/ml) was added in a volume of 20 μl to all wells 3 hours after inoculation, and the plates were re-incubated overnight. A change in colour from blue to pink indicated the growth of bacteria. The fluorescence was read in a computer-controlled fluorometer (Cytofluor Biosearch) at an excitation wavelength of 530 nm and an emission wavelength of 590 nm. The % growth inhibition achieved by the compounds was calculated according to standard methods.

M. Smegmatis (ATCC607) = experiment: In-vitro anti-bacterial activity against strain M. Smegmatis ATCC607; type: cell-based; conditions: 90% inhibitory concentration for bacterial growth, 37° C.; for IC90 (μg/ml) MSM 607: 48 hours; for IC90: Mycolicibacterium smegmatis, ATCC607, 48 h, read-out: IC90 (μg/ml) MSM 607
Protocol: D.2. In-Vitro Method for Testing Compounds for Anti-Bacterial Activity Against Strain M. Smegmatis ATCC607
Flat-bottom, sterile 96-well plastic microtiter plates were filled with 180 μl of sterile deionized water, supplemented with 0.25% BSA. Subsequently, stock solutions (7.8×final test concentration) of compounds were added in 45 μl volumes to a series of duplicate wells in column 2 so as to allow evaluation of their effects on bacterial growth. Serial five-fold dilutions (45 μl in 180 μl) were made directly in the microtiter plates from column 2 to 11 using a customised robot system (Zymark Corp., Hopkinton, Mass.). Pipette tips were changed after every 3 dilutions to minimize pipetting errors with high hydrophobic compounds. Untreated control samples with (column 1) and without (column 12) inoculum were included in each microtiter plate. Approximately 250 CFU per well of bacteria inoculum, in a volume of 100 μl in 2.8×Mueller-Hinton broth medium, was added to the rows A to H, except column 12. The same volume of broth medium without inoculum was added to column 12 in row A to H. The cultures were incubated at 37° C. for 48 hours in a humidified 5% CO2 atmosphere (incubator with open air valve and continuous ventilation). At the end of incubation, two days after inoculation, the bacterial growth was quantitated fluorometrically. Therefore Alamar Blue (10×) was added to all wells in a volume of 20 μl and plates were incubated for another 2 hours at […]
The fluorescence was read in a computer-controlled fluorometer (Cytofluor, Biosearch) at an excitation wavelength of 530 nm and an emission wavelength of 590 nm (gain 30).

[5] = tested on: Streptococcus pneumoniae (ATCC6305); experiment: IC90 determination, microtitre plate assay, SPN 6305; type: cell-based; conditions: 90% inhibitory concentration for bacterial growth, 37° C.; for IC90: Streptococcus pneumoniae, ATCC6305, 24 h, read-out: IC90 (μg/ml) SPN 6305; for IC90 (μg/ml) SPN 6305: 24 hours
Protocol: as §1, §2, §3, §4, §5, §7

[6] = tested on: Escherichia coli (ATCC35218); experiment: IC90 determination, microtitre plate assay, ECO 35218; type: cell-based; conditions: 90% inhibitory concentration for bacterial growth, 24 hours, 37° C., read-out: IC90 (μg/ml) ECO 35218
Protocol: as §1, §2, §3, §4, §5, §6

[7] = tested on: methicilline resistant Staphylococcus aureus (MRSA) (a clinical isolate from the University of Antwerp); experiment: IC90 determination, microtitre plate assay, STA RMETH; type: cell-based; conditions: 90% inhibitory concentration for bacterial growth, 37° C.; for IC90: Staphylococcus aureus, MRSA, 24 h, read-out: IC90 (μg/ml) STA RMETHIC
Protocol: as §1, §2, §3, §4, §5
as §7, with “Therefore resazurin (0.6 mg/ml) was added in a volume of 20 μl to all wells 3 hours after inoculation, and the plates were re-incubated overnight. A change in colour from blue to pink indicated the growth of bacteria.” left out

COc1nc2ccc(Br)cc2cc1C(c1ccccc1)C(O)(CSCCN(C)C)c1ccccc1 (single isomer, unassigned) [Compound 1]
IC90 [1]: 22 µg/mL (≈ 39.8 µM)
IC90 [2]: 49.2 µg/mL (≈ 89.1 µM)
melting point: 175 °C
IC90 [3]: 19.6 µg/mL (≈ 35.5 µM)
IC90 (μg/ml) STA B29213 [4]: 8.74 µg/mL (≈ 15.8 µM)
IC90 (μg/ml) MSM 607 (M. Smegmatis (ATCC607)): 6.94 µg/mL (≈ 12.6 µM)
IC90 [5]: 4.92 µg/mL (≈ 8.92 µM)
IC90 [6]: 55.2 µg/mL (≈ 100 µM)

COc1nc2ccc(Br)cc2cc1C(c1ccccc1)C(O)(CSCCN(C)C)c1ccccc1 (single isomer, unassigned) [Compound 2]
IC90 (μg/ml) STA B29213 [4]: 21.96 µg/mL (≈ 39.8 µM)
IC90 (μg/ml) MSM 607 (M. Smegmatis (ATCC607)): 2.46 µg/mL (≈ 4.46 µM)
IC90 (μg/ml) SPN 6305 [5]: 8.74 µg/mL (≈ 15.8 µM)

COc1nc2ccc(Br)cc2cc1C(c1ccccc1)C(O)(CSCCCN(C)C)c1ccccc1 (single isomer, unassigned) [Compound 3]
IC90 [1]: 11.3 µg/mL (≈ 19.9 µM)
IC90 [2]: 7.99 µg/mL (≈ 14.1 µM)
IC90 [3]: 11.3 µg/mL (≈ 19.9 µM)
IC90 (μg/ml) STA B29213 [4]: 6.35 µg/mL (≈ 11.2 µM)
IC90 [7]: 11.3 µg/mL (≈ 19.9 µM)
IC90 (μg/ml) MSM 607 (M. Smegmatis (ATCC607)): 1.79 µg/mL (≈ 3.16 µM)
IC90 (μg/ml) SPN 6305 [5]: 2.01 µg/mL (≈ 3.55 µM)
IC90 [6]: 14.2 µg/mL (≈ 25.1 µM)

COc1nc2ccc(Br)cc2cc1C(c1ccccc1)C(O)(CSCCCN(C)C)c1ccccc1 (single isomer, unassigned) [Compound 4]
melting point: 136 °C
IC90 [4]: 7.99 µg/mL (≈ 14.1 µM)
IC90 (M. Smegmatis (ATCC607)): 2.01 µg/mL (≈ 3.55 µM)
IC90 (μg/ml) SPN 6305 [5]: 10.06 µg/mL (≈ 17.8 µM)

CCN(CC)CCSCC(O)(c1ccccc1)C(c1ccccc1)c1cc2cc(Br)ccc2nc1OC (single isomer, unassigned) [Compound 5]
IC90 [4]: 58 µg/mL (≈ 100 µM)
IC90 (μg/ml) MSM 607 (M. Smegmatis (ATCC607)): 2.06 µg/mL (≈ 3.55 µM)
IC90 (μg/ml) SPN 6305 [5]: 2.31 µg/mL (≈ 3.99 µM)

CCN(CC)CCSCC(O)(c1ccccc1)C(c1ccccc1)c1cc2cc(Br)ccc2nc1OC (single isomer, unassigned) [Compound 6]
melting point: 148 °C
IC90 (μg/ml) STA B29213 [4]: 51.66 µg/mL (≈ 89.1 µM)
IC90 (μg/ml) MSM 607 (M. Smegmatis (ATCC607)): 10.31 µg/mL (≈ 17.8 µM)
IC90 (μg/ml) SPN 6305 [5]: 23.07 µg/mL (≈ 39.8 µM)

CCN(CC)CCCSCC(O)(c1ccccc1)C(c1ccccc1)c1cc2cc(Br)ccc2nc1OC (single isomer, unassigned) [Compound 7]
melting point: 104 °C
IC90 (μg/ml) STA B29213 [4]: 9.41 µg/mL (≈ 15.9 µM)
IC90 (μg/ml) MSM 607 (M. Smegmatis (ATCC607)): 1.88 µg/mL (≈ 3.17 µM)
IC90 (μg/ml) SPN 6305 [5]: 2.65 µg/mL (≈ 4.46 µM)

CCN(CC)CCCSCC(O)(c1ccccc1)C(c1ccccc1)c1cc2cc(Br)ccc2nc1OC (single isomer, unassigned) [Compound 8]
IC90 (μg/ml) STA B29213 [4]: 1.88 µg/mL (≈ 3.17 µM)
IC90 (M. Smegmatis (ATCC607)): 1.88 µg/mL (≈ 3.17 µM)
IC90 [5]: 2.36 µg/mL (≈ 3.98 µM)

COc1nc2ccc(Br)cc2cc1C(c1ccccc1)C(O)(CSCCCN1CCCCC1)c1ccccc1 (single isomer, unassigned) [Compound 9]
melting point: 158 °C
IC90 (μg/ml) STA B29213 [4]: 60.56 µg/mL (≈ 100 µM)
IC90 (μg/ml) MSM 607 (M. Smegmatis (ATCC607)): 48.11 µg/mL (≈ 79.4 µM)
IC90 (μg/ml) SPN 6305 [5]: 60.56 µg/mL (≈ 100 µM)

COc1nc2ccc(Br)cc2cc1C(c1ccccc1)C(O)(CSCCCN1CCCCC1)c1ccccc1 (single isomer, unassigned) [Compound 10]
IC90 (μg/ml) STA B29213 [4]: 4.81 µg/mL (≈ 7.94 µM)
IC90 (μg/ml) MSM 607 (M. Smegmatis (ATCC607)): 1.92 µg/mL (≈ 3.17 µM)
IC90 (μg/ml) SPN 6305 [5]: 2.15 µg/mL (≈ 3.55 µM)

COc1nc2ccc(Br)cc2cc1C(c1ccccc1)C(O)(CSCCCN1CCN(C)CC1)c1ccccc1 (single isomer, unassigned) [Compound 11]
melting point: 136 °C
IC90 (μg/ml) STA B29213 [4]: 4.93 µg/mL (≈ 7.94 µM)
IC90 (μg/ml) STA RMETHIC ([7]; 24 hours): 12.38 µg/mL (≈ 19.9 µM)
IC90 (μg/ml) MSM 607 (M. Smegmatis (ATCC607)): 1.96 µg/mL (≈ 3.16 µM)
IC90 (μg/ml) SPN 6305 [5]: 1.96 µg/mL (≈ 3.16 µM)

COc1nc2ccc(Br)cc2cc1C(c1ccccc1)C(O)(CSCCCN1CCN(C)CC1)c1ccccc1 (single isomer, unassigned) [Compound 12]
IC90 [4]: 4.39 µg/mL (≈ 7.07 µM)
IC90 [7]: 13.9 µg/mL (≈ 22.4 µM)
IC90 (M. Smegmatis (ATCC607)): 2.2 µg/mL (≈ 3.54 µM)
IC90 [5]: 2.2 µg/mL (≈ 3.54 µM)

COc1nc2ccc(Br)cc2cc1C(c1ccccc1)C(O)(CN(C)CCN(C)C)c1ccccc1 (single isomer, unassigned) [Compound 13]
melting point: 128 °C
IC90 [4]: 43.6 µg/mL (≈ 79.4 µM)
IC90 (M. Smegmatis (ATCC607)): 8.69 µg/mL (≈ 15.8 µM)

COc1nc2ccc(Br)cc2cc1C(c1ccccc1)C(O)(CN(C)CCN(C)C)c1ccccc1 (single isomer, unassigned) [Compound 14]
IC90 (μg/ml) STA B29213 [4]: 54.85 µg/mL (≈ 100 µM)
IC90 (μg/ml) MSM 607 (M. Smegmatis (ATCC607)): 8.69 µg/mL (≈ 15.8 µM)

COc1nc2ccc(Br)cc2cc1C(c1ccccc1)C(O)(CN(CCN(C)C)Cc1ccccc1)c1ccccc1 (stereo not shown) [Compound 15]
IC90 (μg/ml) STA B29213 [4]: 62.46 µg/mL (≈ 100 µM)
IC90 (μg/ml) MSM 607 (M. Smegmatis (ATCC607)): 62.46 µg/mL (≈ 100 µM)
IC90 (μg/ml) SPN 6305 [5]: 62.46 µg/mL (≈ 100 µM)

COc1nc2ccc(Br)cc2cc1C(c1ccccc1)C(O)(CN(CCN(C)C)Cc1ccccc1)c1ccccc1 (stereo not shown) [Compound 16]
IC90 [4]: 62.5 µg/mL (≈ 100 µM)
IC90 (M. Smegmatis (ATCC607)): 55.7 µg/mL (≈ 89.1 µM)
IC90 [5]: 62.5 µg/mL (≈ 100 µM)
